These results are taken from US10716827B2 (priority 2015, dated 2020).

For this experiment, the target named is GLP-1R (Homo sapiens, UniProt P43220).
GLP-1R, sequence (P43220 24-463, species assumed): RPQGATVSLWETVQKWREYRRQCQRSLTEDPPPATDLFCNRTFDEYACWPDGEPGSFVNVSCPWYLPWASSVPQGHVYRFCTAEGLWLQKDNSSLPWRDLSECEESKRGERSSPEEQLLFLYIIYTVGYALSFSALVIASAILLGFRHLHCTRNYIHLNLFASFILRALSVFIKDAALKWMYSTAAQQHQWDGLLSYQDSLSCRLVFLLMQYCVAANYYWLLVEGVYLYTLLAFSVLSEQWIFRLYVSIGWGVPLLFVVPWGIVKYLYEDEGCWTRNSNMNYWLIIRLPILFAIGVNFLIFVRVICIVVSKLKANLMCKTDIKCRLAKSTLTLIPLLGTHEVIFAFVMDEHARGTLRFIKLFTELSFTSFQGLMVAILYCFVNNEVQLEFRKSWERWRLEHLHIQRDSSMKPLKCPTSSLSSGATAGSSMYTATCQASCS

Consider “HGEGTFTSDLS(Kazido)QMEEEAVRLFIENWLKNGGPSSGAPSSGAPPPS [compound 1]”, for which the “% Change in FRET at 100 nM” value (100 nM, undigested) was −12 ± 0.01%. Also, the “potency compared to unmodified Ex-4” value (azido modification at K12) is “no significant reduction in potency”.
